These are literature values, as cited in US20050084547A1, “Natural product based apoptosis inducers” (PhytoMyco Research Corporation, priority 2003, published 2005).

This series deals with human leukemia HL-60 cells. The note with it: microscopy, flow cytometry, DNA fragmentation assay. On the technique in general: Flow cytometry measures light scatter and fluorescence of single cells or particles in a stream.

`CC(=O)OC(C1CO1)C(OC(C)=O)C1CO1` (stereo not shown) [DADAG, diacetyldianhydrogalactitol]: the apoptosis induction result is “induced apoptosis in the HL-60 cells”.
